Like-named read-outs stand apart in the source and are kept apart here.
What was measured:
HeLa MKYP cells [1] = experiment: Human mitophagy assay (HeLa mKeima assay, FACS); format: cell-based; settings: read-out: Mitophagy induction EC50
Description: Briefly, HeLa MKYP cells were plated at 10,000 cells/well in 96 well plates along with compounds at various concentrations. Following 16 hrs of incubation, cells were treated with 1 uM FCCP/oligomycin for 6 hours, then analyzed via FACS for the presence of mitochondria in lysosomes (as determined by an emissions spectrum shift from the pH-sensitive mtKeima tag).
Briefly, HeLa cells expressing a mitophagy indicator (mtKeima) protein were treated with […] of FCCP and Oligomycin followed by the specified dose of compound, then analyzed by FACS to quantify the percentage of cells undergoing mitophagy.

HeLa MKYP cells [2] = experiment: Cell death measured by DAPI staining, with 1 μM FCCP/oligomycin or no toxin (no FO); format: cell-based
Description: EP-0035985, EP-0037821, EP-0038098, and EP-0038099 in the presence of 1 μM FCCP/oligomycin or with no toxin (no FO) for 6 hrs. H2O2 treatment was performed as a control for cell death as measured by DAPI staining.
EP-0035985, EP-0038461, EP-0038463, and EP-0038503 in the presence of 1 μM FCCP/oligomycin or with no toxin (no FO) for 6.5 hrs. H2O2 treatment was performed as a control for cell death as measured by DAPI staining.
EP-0035985, EP-0038504, EP-0038508, and EP-0038521 in the presence of 1 μM FCCP/oligomycin or with no toxin (no FO) for 6.5 hrs. H2O2 treatment was performed as a control for cell death as measured by DAPI staining.
EP-0035985, EP-0038461, EP-0038463, EP-0038503, EP-0038504, EP-0038508, and EP-0038521 in the presence of 1 μM FCCP/oligomycin or with no toxin (no FO) for 6.5 hrs. H2O2 treatment was performed as a control for cell death as measured by DAPI staining.

SMILES	EC50 (HeLa MKYP cells [1]; Homo sapiens, HeLa)	Highest safe dose (cytotoxicity; no FO; safe means DAPI+ <20%) (HeLa MKYP cells [2])	Max % death with 1 μM FO (HeLa MKYP cells [2])	EC50 (HeLa MKYP cells [1])
CO[C@H]1CCN([C@@H]2COc3ccccc3[C@H]2Nc2ncnc3[nH]c(C4CC4)cc23)C1 [EP-0041518]	> 25 µM	25.0 µM	7.4%	–
c1ccc2c(c1)C[C@H](N1C[C@H]3COC[C@H]3C1)[C@H]2Nc1ncnc2[nH]c(C3CC3)cc12 [EP-0040075]	> 25 µM	25.0 µM	6.5%	–
c1ccc2c(c1)CC[C@H](N1C[C@H]3COC[C@H]3C1)[C@H]2Nc1ncnc2[nH]c(C3CC3)cc12 (single isomer, unassigned) [EP-0040248]	> 25 µM	25.0 µM	3.7%	–
OC[C@H]1CCN(C2CCc3ccccc3C2Nc2ncnc3[nH]c(C(F)(F)F)cc23)C1 (mixture of isomers) [EP-0040121]	1.29 µM	25.0 µM	33.6%	–
C[C@H]1CN([C@@H]2CCc3ccccc3[C@H]2Nc2ncnc3[nH]c(C(F)(F)F)cc23)CCO1 (single isomer, unassigned) [EP-0040504]	9.33 µM	25.0 µM	2.0%	–
[2H]C([2H])([2H])OC1CN([C@H]2COc3ccccc3[C@@H]2Nc2ncnc3[nH]c(C(F)(F)F)cc23)C1 (single isomer, unassigned) [EP-0041248]	0.49 µM	25.0 µM	10.5%	–
C[C@@]12COC[C@]1(C)CN(C1CCc3ccccc3C1Nc1ncnc3[nH]c(C4CC4)cc13)C2 (stereo partly drawn) [EP-0040542]	1.45 µM	25.0 µM	15.3%	–
C[C@@H]1COCCN1[C@@H]1CCc2ccccc2[C@H]1Nc1ncnc2[nH]c(C(F)(F)F)cc12 (single isomer, unassigned) [EP-0040197]	–	25.0 µM	8.4%	22.7 µM
FC(F)(F)c1cc2c(N[C@@H]3c4ccccc4CC[C@@H]3C3CCOCC3)ncnc2[nH]1 [EP-0040558]	> 25 µM	25.0 µM	3.0%	–
C[C@H]1COCCN1[C@@H]1CCc2ccccc2[C@H]1Nc1ncnc2[nH]c(C(F)(F)F)cc12 (single isomer, unassigned) [EP-0040193]	–	25.0 µM	29.7%	9.46 µM
CC(=O)N1CCN(C2COc3ccccc3C2Nc2ncnc3[nH]c(C4CC4)cc23)CC1 (racemic) [EP-0041596]	2.72 µM	25.0 µM	15.3%	–
FC(F)OC1CN([C@H]2COc3ccccc3[C@@H]2Nc2ncnc3[nH]c(C(F)(F)F)cc23)C1 (racemic) [EP-0041542]	–	25.0 µM	3.8%	> 25 µM
FC(F)(F)c1cc2c(N[C@H]3c4ccccc4OC[C@@H]3C3CCOCC3)ncnc2[nH]1 (single isomer, unassigned) [EP-0040699]	> 25 µM	25.0 µM	3.7%	–
FC(F)(F)c1cc2c(N[C@@H]3c4ccccc4OC[C@H]3C3CCCOC3)ncnc2[nH]1 (stereo partly drawn) [EP-0041003]	> 25 µM	25.0 µM	5.3%	–
c1ccc2c(c1)OC[C@@H](C1CCOCC1)[C@H]2Nc1ncnc2[nH]c(C3CC3)cc12 [EP-0040730]	> 25 µM	25.0 µM	8.3%	–
c1ccc2c(c1)CC[C@@H](N1C[C@H]3COC[C@@H]3C1)[C@@H]2Nc1ncnc2[nH]c(C3CC3)cc12 [EP-0040767]	> 25 µM	25.0 µM	7.9%	–
C[C@H]1COCCN1[C@@H]1CCc2ccccc2[C@H]1Nc1ncnc2[nH]c(C(F)(F)F)cc12 (single isomer, unassigned) [EP-0040182]	–	25.0 µM	26.8%	21.2 µM

— patent US20240018146A1, “COMPOSITIONS AND METHODS OF USING THE SAME FOR TREATMENT OF NEURODEGENERATIVE AND MITOCHONDRIAL DISEASE” (MITOKININ, INC., priority 2020, published 2024)
